According to ChEMBL document CHEMBL1134968, “Prodrug and covalent linker strategies for the solubilization of dual-action antioxidants/iron chelators” (Bioorg Med Chem Lett, 2002):
In brackets after ≈: the same amount, converted by molar mass.

Assay: Compound was tested for its solubility in DMSO/H2O in a ratio of (1:9)
Format: ADME
Settings: DMSO/H2O (1:9); read-out: S

In the case of `Cc1c(O)c(=O)ccn1CCNCc1cc(C(C)(C)C)c(O)c(C(C)(C)C)c1`, the solubility is reported as 10000 µg/mL.

Assay: Compound was tested for its solubility in water
Format: ADME
Settings: read-out: S

First: Cc1c(C)c2c(c(C)c1OC(=O)c1ccc(N)cc1)CC(CCn1ccc(=O)c(O)c1C)O2 (stereo not given)
Second: Cc1c(C)c2c(c(C)c1OC(=O)CCN)CC(CCn1ccc(=O)c(O)c1C)O2 (stereo not given)
The solubility of the first is lower: under 100 µg/mL for the first, 10000 µg/mL (≈ 25 mM) for the second.

Going from `Cc1c(C)c2c(c(C)c1OC(=O)CCCN)CC(CCn1ccc(=O)c(O)c1C)O2` (stereo not given) to `CNCC(=O)Oc1c(C)c(C)c2c(c1C)CC(CCn1ccc(=O)c(O)c1C)O2` (stereo not given), the solubility rises from 10000 µg/mL (≈ 24.1 mM) to over 20000 µg/mL.

`Cc1c(C)c2c(c(C)c1OC(=O)C(N)C(C)C)CC(CCn1ccc(=O)c(O)c1C)O2` (stereo not given) and `Cc1c(C)c2c(c(C)c1OC(=O)CN(C)C)CC(CCn1ccc(=O)c(O)c1C)O2` (stereo not given) cannot be ordered by solubility: over 20000 µg/mL for the first, over 20000 µg/mL for the second.

`Cc1c(C)c2c(c(C)c1O)CC(CCn1ccc(=O)c(O)c1C)O2` (stereo not given) and `Cc1c(C)c2c(c(C)c1O)CCC(C)(CNCCCCn1ccc(=O)c(O)c1C)O2` (stereo not given) cannot be ordered by solubility: under 100 µg/mL for the first, under 100 µg/mL for the second.

`Cc1c(OC(=O)c2ccc(N)cc2)c(=O)ccn1CCCc1cc(C(C)(C)C)c(O)c(C(C)(C)C)c1` and `CC(=O)Oc1c(C)n(CCCc2cc(C(C)(C)C)c(O)c(C(C)(C)C)c2)ccc1=O` cannot be ordered by solubility: under 100 µg/mL for the first, under 100 µg/mL for the second.

`Cc1c(O)c(=O)ccn1CCOCCOCCOCCOCCOCCCc1cc(C(C)(C)C)c(O)c(C(C)(C)C)c1` and `Cc1c(O)c(=O)ccn1CCOCCOCCOCCOCCCc1cc(C(C)(C)C)c(O)c(C(C)(C)C)c1` cannot be ordered by solubility: under 100 µg/mL for the first, under 100 µg/mL for the second.

Going from `Cc1c(O)c(=O)ccn1CCCc1cc(C(C)(C)C)c(O)c(C(C)(C)C)c1` to `Cc1c(OC(=O)CCN)c(=O)ccn1CCCc1cc(C(C)(C)C)c(O)c(C(C)(C)C)c1`, the solubility rises from under 100 µg/mL to over 20000 µg/mL.
